Tested on: MKN45 cells
Experiment: MKN45 cell proliferation assay (CellTiter-Glo)
Format: cell-based
Details: Homo sapiens, MKN-45, 72 h, MKN45 cell line, 3 days incubation, at least duplicate experiments, read-out: Prolif. IC50
Protocol: The effect of inhibitors on the proliferation of MKN45 cells was determined using the following protocol. MKN45 cells were plated in Corning 3917 96-well white tissue culture treated plates in growth medium (RPMI, 10% FCS) at a density of 5000 cells/well in a total volume of 135 μL and incubated at 37° C., 5% CO2, 95% humidity overnight. The following day, one-tenth volume of a 10× concentration of compounds was added to the wells in an 8-point dilution series. The dilution series was composed of an initial 1:5 dilution of a 10 mM stock of compound in DMSO, followed by serial 1:4 dilutions in DMSO, then a 1:20 dilution in growth medium prior to the 1:10 dilution into the cell plate. Final DMSO concentration on the cells was 0.1%, there were control wells treated with both 0.1% DMSO and no DMSO. The typical dilution range is 10 μM to 0.6 nM. Once the compound was added to the cells, plates were incubated for 3 days at 37° C., 5% CO2 at 95% humidity. On the third day, after allowing all cells and reagents to come to room temperature, 25 μL of CellTiter-Glo reagent (Promega # G7573) was added to the wells. Plates were shaken on a platform for 10 minutes prior to reading luminescence for 0.1 seconds. The signal of the control wells was taken as 100% growth and growth inhibition was expressed as percent of control. IC50 values were determined from the percent of control data using a standard four-parameter model.
(§1) The IC50 values of exemplary compounds of the present invention determined in a cell proliferation assay using the MKN45 cell line according to the procedures described herein in at least duplicate experiments are abbreviated as follows and are shown in Table 2: A, IC50≦0.1 μM; B, 0.1 μM<IC50≦1 μM; C, 1 μM<IC50≦10 μM; D, IC50>10 μM; ND, not determined. The Example # of Table 2 corresponds to the compound example number as illustrated in the Examples section.

IC50	Compound
100 to 1000 nM	CC(c1c(Cl)ccc(F)c1Cl)c1c[nH]c2ncc(-c3ccc(N4CCOCC4)cc3)cc12 (centres unmarked) [Example 25, 3-[1-(2,6-Dichloro-3-fluorophenyl)ethyl]-5-(4-morpholin-4-ylphenyl)-1H-pyrrolo[2,3-b]pyridine]
1000 to 10000 nM	CC(c1c(Cl)ccc(F)c1Cl)c1c[nH]c2ncc(-c3cnn(C(C)(C)C(=O)O)c3)cc12 (centres unmarked) [Example 61, 2-(4-{3-[1-(2,6-Dichloro-3-fluorophenyl)ethyl]-1H-pyrrolo[2,3-b]pyridin-5-yl}-pyrazol-1-yl)-2-methylpropionic acid]
1000 to 10000 nM	CC(c1c(Cl)ccc(F)c1Cl)c1c[nH]c2ncc(-c3ccc(N(C)C)cc3)cc12 (centres unmarked) [Example 11, (4-{3-[1-(2,6-Dichloro-3-fluorophenyl)ethyl]-1H-pyrrolo[2,3-b]pyridin-5-yl}phenyl)dimethylamine]
1000 to 10000 nM	CC(=O)Nc1ccc(-c2cnc3[nH]cc(C(C)c4c(Cl)ccc(F)c4Cl)c3c2)cc1 (centres unmarked) [Example 10, N-(4-{3-[1-(2,6-Dichloro-3-fluorophenyl)ethyl]-1H-pyrrolo[2,3-b]pyridin-5-yl}phenyl)acetamide]
100 to 1000 nM	CC(c1c(Cl)ccc(F)c1Cl)c1c[nH]c2ncc(-c3ccc(N4CCN(C)CC4)cc3)cc12 (centres unmarked) [Example 16, 3-[1-(2,6-Dichloro-3-fluorophenyl)ethyl]-5-[4-(4-methylpiperazin-1-yl)phenyl]-1H-pyrrolo[2,3-b]pyridine]
1000 to 10000 nM	CC(c1c(Cl)ccc(F)c1Cl)c1c[nH]c2ncc(-c3ccsc3)cc12 (centres unmarked) [Example 9, 3-[1-(2,6-Dichloro-3-fluorophenyl)ethyl]-5-thiophen-3-yl-1H-pyrrolo[2,3-b]pyridine]
1000 to 10000 nM	CC(c1c(Cl)ccc(F)c1Cl)c1c[nH]c2ncc(-c3cncnc3)cc12 (centres unmarked) [Example 12, 3-[1-(2,6-Dichloro-3-fluorophenyl)ethyl]-5-pyrimidin-5-yl-1H-pyrrolo[2,3-b]pyridine]
1000 to 10000 nM	CC(c1c(Cl)ccc(F)c1Cl)c1c[nH]c2ncc(-c3ccc(C(N)=O)cc3)cc12 (centres unmarked) [Example 14, 4-{3-[1-(2,6-Dichloro-3-fluorophenyl)ethyl]-1H-pyrrolo[2,3-b]pyridin-5-yl}benzamide]
1000 to 10000 nM	CC(c1c(Cl)ccc(F)c1Cl)c1c[nH]c2ncc(-c3ccc(NS(C)(=O)=O)cc3)cc12 (centres unmarked) [Example 17, N-(4-{3-[1-(2,6-Dichloro-3-fluorophenyl)ethyl]-1H-pyrrolo[2,3-b]pyridin-5-yl}phenyl)methanesulfonamide]
1000 to 10000 nM	CC(c1c(Cl)ccc(F)c1Cl)c1c[nH]c2ncc(-c3ccc(O)cc3)cc12 (centres unmarked) [Example 8, 4-{3-[1-(2,6-Dichloro-3-fluorophenyl)ethyl]-1H-pyrrolo[2,3-b]pyridin-5-yl}phenol]
1000 to 10000 nM	CC(c1c(Cl)ccc(F)c1Cl)c1c[nH]c2ncc(-c3ccc(C(=O)NC4CCCCC4)cc3)cc12 (centres unmarked) [Example 21, N-Cyclohexyl-4-{3-[1-(2,6-dichloro-3-fluorophenyl)ethyl]-1H-pyrrolo[2,3-b]pyridin-5-yl}benzamide]

Target: T1, phosphorylated c-MET (Homo sapiens, UniProt P08581)
T1 construct: endogenous in cells; host or cells: MKN45
Experiment: c-MET cell mechanistic assay (phosphorylated c-MET in MKN45 cells)
Format: cell-based
Details: MKN45 cell line, four hours incubation, phosphorylated c-MET levels, at least duplicate experiments; read-out: Met mech IC50
Protocol: The cellular activity of the compounds of the present invention may be determined by the following procedure. MKN45 cells were plated in Falcon 3072 96-well plates in growth media (RPMI, 10% FBS, 1% L-glutamine) at a density of 5000 cells/well and incubated at 37° C., 5% CO2 overnight. The following day, one-tenth volume of a 10× concentration of compounds was added to the wells in a 6-point dilution series. The dilutions series was composed of an initial 1:5 dilution in DMSO, followed by a 1:10 dilution in growth media, for a final DMSO concentration on cells of 0.5%. Control wells were treated with 0.5% DMSO. The typical range of dilution was 10 μM to 3 nM. Once compound was added to the cells, plates were incubated for four hours at 37° C., 5% CO2. Plates were then washed in PBS, and lysed in triton-based lysis buffer. Lysates were transferred to a precoated capture plate made by Biosource (Cat # KH00281). The phosphorylated c-MET levels were measured by incubating with a rabbit polyclonal antibody against phosphorylated c-MET ([pYpYpY1230/1234/1235]) followed by an anti-rabbit antibody conjugated to HRP. Signal was measured on a Wallac Victor plate reader at 450 nm. The DMSO signal of the control wells was defined as 100% and the percent of inhibition of phosphorylated c-Met was expressed as percent of control. IC50 values were determined from the percent of control data using a standard four-parameter model.
as §1, with “in a c-MET cell mechanistic” for “in a cell proliferation”, “c-MET cell mechanistic assay using” for “a cell proliferation assay using”, “in Table 3: A, IC50≦0.1” for “in Table 2: A, IC50≦0.1”, “of Table 3 corresponds to” for “of Table 2 corresponds to”

T1 sequence (P08581 25-1390): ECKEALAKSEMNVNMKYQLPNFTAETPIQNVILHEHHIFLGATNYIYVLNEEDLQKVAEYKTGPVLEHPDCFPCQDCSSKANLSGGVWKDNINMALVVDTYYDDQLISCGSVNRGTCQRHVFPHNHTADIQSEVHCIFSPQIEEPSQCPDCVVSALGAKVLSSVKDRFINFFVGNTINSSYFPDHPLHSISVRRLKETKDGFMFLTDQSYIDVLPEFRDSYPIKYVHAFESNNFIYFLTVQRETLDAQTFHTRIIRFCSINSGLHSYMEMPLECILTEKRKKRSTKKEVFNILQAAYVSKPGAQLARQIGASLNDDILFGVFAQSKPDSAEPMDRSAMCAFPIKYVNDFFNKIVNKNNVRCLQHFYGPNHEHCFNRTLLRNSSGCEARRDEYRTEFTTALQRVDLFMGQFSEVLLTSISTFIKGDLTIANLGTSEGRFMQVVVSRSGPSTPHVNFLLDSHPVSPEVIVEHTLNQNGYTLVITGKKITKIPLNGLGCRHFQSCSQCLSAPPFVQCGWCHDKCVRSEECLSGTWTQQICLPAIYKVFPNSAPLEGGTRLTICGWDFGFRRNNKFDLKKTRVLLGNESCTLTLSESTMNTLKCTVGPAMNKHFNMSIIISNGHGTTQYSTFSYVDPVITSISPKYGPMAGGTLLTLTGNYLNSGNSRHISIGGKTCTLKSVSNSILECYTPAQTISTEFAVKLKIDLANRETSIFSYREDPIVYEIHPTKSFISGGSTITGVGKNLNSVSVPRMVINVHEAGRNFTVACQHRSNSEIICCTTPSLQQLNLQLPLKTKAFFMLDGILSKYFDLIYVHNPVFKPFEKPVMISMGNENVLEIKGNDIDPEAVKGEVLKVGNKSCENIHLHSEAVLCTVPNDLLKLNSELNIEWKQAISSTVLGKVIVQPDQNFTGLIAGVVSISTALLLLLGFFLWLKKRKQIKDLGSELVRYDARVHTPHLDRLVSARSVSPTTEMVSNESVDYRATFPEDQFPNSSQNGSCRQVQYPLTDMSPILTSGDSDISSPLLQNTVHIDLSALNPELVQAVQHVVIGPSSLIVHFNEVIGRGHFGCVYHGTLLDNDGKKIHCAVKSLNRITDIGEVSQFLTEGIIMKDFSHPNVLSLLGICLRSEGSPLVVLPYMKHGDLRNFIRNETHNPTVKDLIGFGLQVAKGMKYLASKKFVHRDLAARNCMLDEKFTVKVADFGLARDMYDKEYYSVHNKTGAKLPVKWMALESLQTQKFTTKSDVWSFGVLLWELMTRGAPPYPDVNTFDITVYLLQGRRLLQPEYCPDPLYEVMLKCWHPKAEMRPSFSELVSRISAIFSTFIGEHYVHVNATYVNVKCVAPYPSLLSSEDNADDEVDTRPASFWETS

Compound	IC50
CC(c1c(Cl)ccc(F)c1Cl)c1c[nH]c2ncc(-c3cnn(C(C)(C)C(=O)O)c3)cc12 (centres unmarked) [Example 61, 2-(4-{3-[1-(2,6-Dichloro-3-fluorophenyl)ethyl]-1H-pyrrolo[2,3-b]pyridin-5-yl}-pyrazol-1-yl)-2-methylpropionic acid]	1000 to 10000 nM
C[C@@H](c1c(Cl)ccc(F)c1Cl)c1c[nH]c2ncc(-c3cnn(C4CCN(S(C)(=O)=O)CC4)c3)cc12 [Example 83, 3-[(R)-1-(2,6-Dichloro-3-fluorophenyl)ethyl]-5-[1-(1-methane-sulfonylpiperidin-4-yl)-1H-pyrazol-4-yl]-1H-pyrrolo[2,3-b]pyridine]	1000 to 10000 nM
CC(c1c(Cl)ccc(F)c1Cl)c1c[nH]c2ncc(C3=CCN(C(=O)C(O)C(F)(F)F)CC3)cc12 (centres unmarked) [Example 44]	100 to 1000 nM
C[C@@H](c1c(Cl)ccc(F)c1Cl)c1c[nH]c2ncc(-c3cnn(C4CCN(C(N)=O)CC4)c3)cc12 [Example 84, 4-(4-{3-[(R)-1-(2,6-Dichloro-3-fluorophenyl)ethyl]-1H-pyrrolo[2,3-b]-pyridin-5-yl}-pyrazol-1-yl)-piperidine-1-carboxamide]	1000 to 10000 nM
C[C@@H](c1c(Cl)ccc(F)c1Cl)c1c[nH]c2ncc(-c3cnn(C4CCN(C=O)CC4)c3)cc12 [Example 82, 4-(4-{3-[(R)-1-(2,6-Dichloro-3-fluorophenyl)ethyl]-1H-pyrrolo[2,3-b]-pyridin-5-yl}-pyrazol-1-yl)-piperidine-1-carbaldehyde]	100 to 1000 nM
3-[1-(2,6-Dichloro-3-fluorophenyl)ethyl]-5-[1-(1-methanesulfonylpiperidin-4-yl)-1H-pyrazol-4-yl]-1H-pyrrolo[2,3-b]pyridine [Example 37]	100 to 1000 nM
C[C@H](c1c(Cl)ccc(F)c1Cl)c1c[nH]c2ncc(-c3cnn([C@H]4CC[C@H](O)CC4)c3)cc12 [Example 86, trans-4-(4-{3-[(1S)-1-(2,6-dichloro-3-fluorophenyl)ethyl]-1H-pyrrolo[2,3-b]pyridin-5-yl}-1H-pyrazol-1-yl)cyclohexanol]	≤ 100 nM
CC(c1c(Cl)ccc(F)c1Cl)c1c[nH]c2ncc(-c3cnn(C4CCN(S(N)(=O)=O)CC4)c3)cc12 (centres unmarked) [Example 52, 4-(4-{3-[1-(2,6-Dichloro-3-fluorophenyl)ethyl]-1H-pyrrolo[2,3-b]pyridin-5-yl}-pyrazol-1-yl)-piperidine-1-sulfonic acid amide]	100 to 1000 nM
COC(=O)N1CC=C(c2cnc3[nH]cc(C(C)c4c(Cl)ccc(F)c4Cl)c3c2)CC1 (centres unmarked) [Example 35, 4-{3-[1-(2,6-Dichloro-3-fluorophenyl)-ethyl]-1H-pyrrolo[2,3-b]pyridin-5-yl}-3,6-dihydro-2H-pyridine-1-carboxylic acid methyl ester]	100 to 1000 nM
CNC(=O)N1CC=C(c2cnc3[nH]cc(C(C)c4c(Cl)ccc(F)c4Cl)c3c2)CC1 (centres unmarked) [Example 34, 4-{3-[1-(2,6-Dichloro-3-fluorophenyl)ethyl]-1H-pyrrolo[2,3-b]pyridin-5-yl}-3,6-dihydro-2H-pyridine-1-carboxylic acid methylamide]	100 to 1000 nM
C[C@H](c1c(Cl)ccc(F)c1Cl)c1c[nH]c2ncc(-c3cnn(CC(=O)O)c3)cc12 [Example 74, (4-{3-[(S)-1-(2,6-Dichloro-3-fluorophenyl)ethyl]-1H-pyrrolo[2,3-b]pyridin-5-yl}-pyrazol-1-yl)-acetic acid]	100 to 1000 nM

Second part, the compound after the results:

IC50	Compound
100 to 1000 nM	C[C@H](c1c(Cl)ccc(F)c1Cl)c1c[nH]c2ncc(-c3ccncc3)cc12 [Example 68, 3-[(S)-1-(2,6-Dichloro-3-fluorophenyl)ethyl]-5-pyridin-4-yl-1H-pyrrolo[2,3-b]pyridine]
100 to 1000 nM	CC(c1c(Cl)ccc(F)c1Cl)c1c[nH]c2ncc(-c3cn(C)cn3)cc12 (centres unmarked) [Example 54, 3-[1-(2,6-Dichloro-3-fluorophenyl)ethyl]-5-(1-methyl-1H-imidazol-4-yl)-1H-pyrrolo[2,3-b]pyridine]
100 to 1000 nM	C[C@H](c1c(Cl)ccc(F)c1Cl)c1c[nH]c2ncc(C3=CCCNC3)cc12 [Example 66, 3-[(S)-1-(2,6-Dichloro-3-fluorophenyl)ethyl]-5-(1,2,5,6-tetrahydropyridin-3-yl)-1H-pyrrolo[2,3-b]pyridine]
≤ 100 nM	C[C@H](c1c(Cl)ccc(F)c1Cl)c1c[nH]c2ncc(-c3cnn([C@H]4CC[C@@H](O)CC4)c3)cc12 [Example 87, cis-4-(4-{3-[(1S)-1-(2,6-dichloro-3-fluorophenyl)ethyl]-1H-pyrrolo[2,3-b]pyridin-5-yl}-1H-pyrazol-1-yl)cyclohexanol]

From patent US8592448B2 (OSI Pharmaceuticals, LLC, priority 2008, dated 2013)
